pKd: −log10 of the molar value. Read-outs that look alike come from different tables or passages of the source. Bridge positions count the residues as written; N and C are the ends. Peptide text beside a SMILES is read from it.
Molecular target: T1, recombinant DLL3 ectodomain (rhDLL3-Fc) (Homo sapiens, UniProt Q9NYJ7)
T1 construct: The recombinant DLL3 ectodomain (rhDLL3-Fc) was biotinylated; Fc
T1 sequence (Q9NYJ7 27-492 limits assumed): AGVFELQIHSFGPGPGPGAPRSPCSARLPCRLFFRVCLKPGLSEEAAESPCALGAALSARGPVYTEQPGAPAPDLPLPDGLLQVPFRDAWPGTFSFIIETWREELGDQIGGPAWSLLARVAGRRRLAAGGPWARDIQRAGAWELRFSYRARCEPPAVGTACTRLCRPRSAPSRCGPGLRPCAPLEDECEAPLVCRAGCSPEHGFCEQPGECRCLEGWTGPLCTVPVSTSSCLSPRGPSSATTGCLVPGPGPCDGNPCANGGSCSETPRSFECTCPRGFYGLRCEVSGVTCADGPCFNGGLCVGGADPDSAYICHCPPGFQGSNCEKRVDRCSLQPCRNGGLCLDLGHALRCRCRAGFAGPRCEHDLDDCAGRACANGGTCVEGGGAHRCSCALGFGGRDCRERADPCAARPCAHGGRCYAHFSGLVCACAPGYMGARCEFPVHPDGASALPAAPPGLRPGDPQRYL
Assay: Binding kinetic assay using Bio-layer interferometry (BLI)
Conditions: for binding mode to DLL3: peptides at 20, 4 and 0.8 μM, fit to 1:1 Langmuir binding model; for pKd: global fitting 1:1 Langmuir, koff vs kon ratio; for affinity: wider dose-response 10×KD to 0.1×KD
Experimental: Binding kinetic assays were performed using Bio-layer interferometry (BLI) technology. The recombinant DLL3 ectodomain (rhDLL3-Fc) was biotinylated using EZ-Link Sulfo-NHS-LC-LC-Biotin Kit according to the manufacturer's protocol (Pierce by Thermo Fisher Scientific). The recombinant protein was incubated with an excess of NHS-LC-LC Biotin ester, in a molar ratio of 1:3 (protein: biotin), at 25° C. for 90 min. The un-reacted biotin ester was removed by subsequent buffer exchange on 0.5 ml Zeba spin desalting columns 7K MWCO (Pierce by Thermo Fisher Scientific).

[1] = Table 4, ± values from three independent experiments, read-out: RT (residence time) (converted)
[2] = Table 4, ± values from three independent experiments
[3] = range over the seven peptides, read-out: residence time

With `C[C@@H](O)[C@@H]1NC(=O)CNC(=O)[C@H]([C@@H](C)O)NC(=O)[C@@H](NC(=O)CNC(=O)[C@@H](N)Cc2c[nH]c3ccccc23)CSSC[C@@H](C(=O)N[C@@H](Cc2c[nH]c3ccccc23)C(=O)N[C@@H](Cc2c[nH]c3ccccc23)C(N)=O)NC(=O)[C@H]([C@@H](C)O)NC(=O)[C@H](CCC(=O)O)NC(=O)[C@H](CC(N)=O)NC(=O)CNC(=O)[C@H](Cc2c[nH]c3ccccc23)NC1=O` [PepSP1213] (H-WGCTGTWGNETCWW-NH2; disulfide 3-12; N-terminus assumed) the residence time [1] was 0.0227 min.

With `CC(C)[C@H](NC(=O)[C@@H](NC(=O)[C@H](CCC(=O)O)NC(=O)[C@H](C)N)[C@@H](C)O)C(=O)N[C@@H](CCC(=O)O)C(=O)N[C@@H](Cc1ccccc1)C(=O)N[C@@H](Cc1ccc(O)cc1)C(=O)NCC(=O)N[C@H]1CSSC[C@@H](C(=O)N[C@@H](C)C(=O)N[C@@H](Cc2c[nH]c3ccccc23)C(N)=O)NC(=O)[C@H]([C@@H](C)O)NC(=O)[C@H](Cc2c[nH]c3ccccc23)NC(=O)CNC(=O)[C@H](CCCCN)NC(=O)[C@H](Cc2c[nH]c3ccccc23)NC(=O)[C@H](CC(=O)O)NC(=O)[C@H](Cc2c[nH]c3ccccc23)NC(=O)[C@H](CCCCN)NC1=O` [PepSP1168] (H-AETVEFYGCKWDWKGWTCAW-NH2; disulfide 9-18; N-terminus assumed) the residence time [1] was 0.733 min and the “binding mode to DLL3” value was “dose-response saturable binding”.

For `CC(C)[C@@H]1NC(=O)CNC(=O)[C@H](CCC(=O)O)NC(=O)[C@H]([C@@H](C)O)NC(=O)[C@H](Cc2c[nH]c3ccccc23)NC(=O)[C@H](Cc2ccc(O)cc2)NC(=O)[C@@H](NC(=O)[C@@H](NC(=O)[C@H](Cc2c[nH]c3ccccc23)NC(=O)[C@H](Cc2ccccc2)NC(=O)[C@H](CCC(=O)O)NC(=O)[C@@H](NC(=O)[C@@H](NC(=O)[C@H](CCC(=O)O)NC(=O)[C@H](C)N)[C@@H](C)O)C(C)C)[C@@H](C)O)CSSC[C@@H](C(=O)N[C@@H](CCCNC(=N)N)C(=O)N[C@@H](Cc2c[nH]c3ccccc23)C(N)=O)NC(=O)CNC(=O)[C@H](CO)NC1=O` [PepSP1151] (H-AETVEFWTCYWTEGVSGCRW-NH2; disulfide 9-18), the pKd [2] was 6.90, the residence time [1] was 2.78 min and the “binding mode to DLL3” value was “dose-response saturable binding”.

In the case of `CC(C)[C@H](NC(=O)[C@@H](NC(=O)[C@H](CCC(=O)O)NC(=O)[C@H](C)N)[C@@H](C)O)C(=O)N[C@@H](CCC(=O)O)C(=O)N[C@@H](Cc1ccccc1)C(=O)N[C@@H](Cc1c[nH]c2ccccc12)C(=O)N[C@@H](CO)C(=O)N[C@H]1CSSC[C@@H](C(=O)NCC(=O)N[C@@H](Cc2c[nH]c3ccccc23)C(N)=O)NC(=O)[C@H](CO)NC(=O)[C@H](Cc2ccc(O)cc2)NC(=O)[C@H]([C@@H](C)O)NC(=O)[C@H](Cc2ccc(O)cc2)NC(=O)[C@H](CCC(=O)O)NC(=O)[C@H](CC(=O)O)NC(=O)[C@H](C)NC(=O)[C@H](C)NC(=O)CNC(=O)CNC(=O)[C@H](Cc2c[nH]c3ccccc23)NC(=O)[C@H](Cc2c[nH]c3ccccc23)NC(=O)[C@H](CCCCN)NC1=O` [PepSP1182] (H-AETVEFWSCKWWGGAADEYTYSCGW-NH2; disulfide 9-23; N-terminus assumed), the residence time [1] was 1.61 min, the “binding mode to DLL3” value was “dose-response saturable binding” and the residence time [3] was 1 to 3 min. The affinity was “double-digit nM range”.

For `C[C@@H](O)[C@H](NC(=O)[C@@H]1CSSC[C@H](NC(=O)[C@H](CC(=O)O)NC(=O)[C@@H](N)Cc2c[nH]c3ccccc23)C(=O)N[C@@H](Cc2c[nH]c3ccccc23)C(=O)NCC(=O)N[C@@H](CC(N)=O)C(=O)N[C@@H]([C@@H](C)O)C(=O)N[C@@H](CC(=O)O)C(=O)N[C@@H](CC(=O)O)C(=O)N[C@@H](Cc2c[nH]c3ccccc23)C(=O)N[C@@H]([C@@H](C)O)C(=O)N1)C(=O)N[C@@H](Cc1c[nH]c2ccccc12)C(N)=O` [PepSP1269] (H-WDCWGNTDDWTCTW-NH2; disulfide 3-12; N-terminus assumed), the residence time [1] was 0.333 min.

`CC(C)[C@H](NC(=O)[C@@H]1CSSC[C@H](NC(=O)[C@H](Cc2ccc(O)cc2)NC(=O)[C@H](CC(=O)O)NC(=O)[C@H](Cc2ccccc2)NC(=O)[C@H](CCC(=O)O)NC(=O)[C@@H](NC(=O)[C@@H](NC(=O)[C@H](CCC(=O)O)NC(=O)[C@H](C)N)[C@@H](C)O)C(C)C)C(=O)N[C@@H](Cc2ccc(O)cc2)C(=O)NCC(=O)N[C@@H](CC(=O)O)C(=O)N[C@@H](C(C)C)C(=O)N[C@@H](CCC(=O)O)C(=O)N[C@@H](CCC(=O)O)C(=O)N[C@@H](Cc2c[nH]c3ccccc23)C(=O)N[C@@H]([C@@H](C)O)C(=O)N1)C(=O)N[C@@H](Cc1ccc(O)cc1)C(N)=O` [PepSP1166] (H-AETVEFDYCYGDVEEWTCVY-NH2; disulfide 9-18; N-terminus assumed) was tested, and the residence time [1] was 0.8 min and the “binding mode to DLL3” value was “dose-response saturable binding”.

For `CC(C)[C@H](NC(=O)[C@@H](NC(=O)[C@H](CCC(=O)O)NC(=O)[C@H](C)N)[C@@H](C)O)C(=O)N[C@@H](CCC(=O)O)C(=O)N[C@@H](Cc1ccccc1)C(=O)N[C@@H](CC(=O)O)C(=O)NCC(=O)N[C@H]1CSSC[C@@H](C(=O)N[C@@H](Cc2c[nH]c3ccccc23)C(=O)N[C@@H](Cc2c[nH]c3ccccc23)C(N)=O)NC(=O)[C@H]([C@@H](C)O)NC(=O)[C@H](Cc2c[nH]c3ccccc23)NC(=O)[C@H](CCC(=O)O)NC(=O)[C@H](Cc2ccc(O)cc2)NC(=O)[C@H](Cc2c[nH]c3ccccc23)NC(=O)[C@H](CC(=O)O)NC(=O)CNC(=O)[C@H](CCCCN)NC1=O` [PepSP1164] (H-AETVEFDGCKGDWYEWTCWW-NH2; disulfide 9-18), the pKd [2] was 6.90, the residence time [1] was 2.08 min and the “binding mode to DLL3” value was “dose-response saturable binding”.

In the case of `CC(C)C[C@H](NC(=O)[C@H](Cc1ccccc1)NC(=O)[C@H](CCC(=O)O)NC(=O)[C@@H](NC(=O)[C@@H](NC(=O)[C@H](CCC(=O)O)NC(=O)[C@H](C)N)[C@@H](C)O)C(C)C)C(=O)NCC(=O)N[C@H]1CSSC[C@@H](C(=O)N[C@H](C(=O)N[C@@H](Cc2c[nH]c3ccccc23)C(N)=O)C(C)C)NC(=O)[C@H]([C@@H](C)O)NC(=O)[C@H](Cc2c[nH]c3ccccc23)NC(=O)[C@H](CCC(=O)O)NC(=O)[C@H](CO)NC(=O)[C@H](CC(N)=O)NC(=O)[C@H](CC(=O)O)NC(=O)CNC(=O)[C@H](Cc2c[nH]cn2)NC1=O` [PepSP1163] (H-AETVEFLGCHGDNSEWTCVW-NH2; disulfide 9-18), the “RT (residence time)” value [2] was 166.8 ± 19.5 s, the residence time [1] was 2.78 min and the “binding mode to DLL3” value was “dose-response saturable binding”. For the same compound, the residence time [3] was 1 to 3 min and the affinity was “double-digit nM range”.

With `CC(C)[C@H](NC(=O)[C@@H](NC(=O)[C@H](CCC(=O)O)NC(=O)[C@H](C)N)[C@@H](C)O)C(=O)N[C@@H](CCC(=O)O)C(=O)N[C@@H](Cc1ccccc1)C(=O)N[C@@H](Cc1ccc(O)cc1)C(=O)NCC(=O)N[C@H]1CSSC[C@@H](C(=O)N[C@@H](CO)C(=O)N[C@@H](Cc2c[nH]c3ccccc23)C(N)=O)NC(=O)[C@H]([C@@H](C)O)NC(=O)[C@H](Cc2ccc(O)cc2)NC(=O)[C@H](CC(=O)O)NC(=O)[C@H](CC(N)=O)NC(=O)[C@H](Cc2ccc(O)cc2)NC(=O)[C@H](CC(N)=O)NC(=O)CNC(=O)[C@H](Cc2c[nH]c3ccccc23)NC1=O` [PepSP1177] (H-AETVEFYGCWGNYNDYTCSW-NH2; disulfide 9-18; N-terminus assumed) the residence time [1] was 0.867 min and the “binding mode to DLL3” value was “dose-response saturable binding”.

With `CC(C)C[C@@H]1NC(=O)[C@@H](NC(=O)[C@H](Cc2ccc(O)cc2)NC(=O)[C@H](CC(=O)O)NC(=O)[C@H](Cc2ccccc2)NC(=O)[C@H](CCC(=O)O)NC(=O)[C@@H](NC(=O)[C@@H](NC(=O)[C@H](CCC(=O)O)NC(=O)[C@H](C)N)[C@@H](C)O)C(C)C)CSSC[C@@H](C(=O)N[C@@H](CCC(N)=O)C(=O)N[C@@H](CC(N)=O)C(N)=O)NC(=O)CNC(=O)[C@H](Cc2c[nH]c3ccccc23)NC(=O)[C@H](C)NC(=O)[C@H](CC(=O)O)NC(=O)[C@@H]2CCCN2C(=O)[C@H](C)NC(=O)[C@H](Cc2c[nH]c3ccccc23)NC1=O` [PepSP1159] (H-AETVEFDYCLWAPDAWGCQN-NH2; disulfide 9-18; N-terminus assumed) the residence time [1] was 0.1 min and the “binding mode to DLL3” value was “dose-response saturable binding”.

In the case of `CC(C)[C@@H]1NC(=O)[C@H]([C@@H](C)O)NC(=O)[C@H](CCC(=O)O)NC(=O)[C@H](CCC(=O)O)NC(=O)[C@H](Cc2ccc(O)cc2)NC(=O)[C@H](Cc2c[nH]c3ccccc23)NC(=O)[C@H](CC(=O)O)NC(=O)[C@@H](NC(=O)[C@H](CCCNC(=N)N)NC(=O)[C@H](Cc2c[nH]c3ccccc23)NC(=O)[C@H](Cc2ccc(O)cc2)NC(=O)[C@H](CCC(=O)O)NC(=O)[C@@H](NC(=O)[C@@H](NC(=O)[C@H](CCC(=O)O)NC(=O)[C@H](C)N)[C@@H](C)O)C(C)C)CSSC[C@@H](C(=O)NCC(=O)N[C@H](C(N)=O)[C@@H](C)O)NC(=O)[C@H](C)NC1=O` [PepSP1155] (H-AETVEYWRCDWYEETVACGT-NH2; disulfide 9-18), the residence time [1] was 2.95 min and the “binding mode to DLL3” value was “dose-response saturable binding”.
